# Reference: EP1891940B1, “Intrasynovial formulations of stanozolol” (Acme Drugs S.r.l., priority 2006, dated 2008)
# Columns and labels:
# [1] = Persistence of stanozolol in the joint / synovial fluid after intrasynovial injection; format: in vivo, horses and humans
# From the text: A single intrasynovial injection of said formulations allows the stanozolol to be brought up to and maintained at pharmacologically active concentrations in the joint for 6-7 days, a period which is long enough to produce evident clinical benefits and fully compatible with long-term treatments.
# Two examples of formulation of a typical preparation containing stanozolol administrable by the intrasynovial route to horses and humans, which remains in the synovial fluid for 5-7 days, one set out below: • a) Active ingredient: micronised stanozolol (having a prevalent population of particles with a diameter of less than 20 µm) 5 mg; Water for injectables q.s. to 1 ml. • b) Active ingredient: Micronised Stanozolol: (having a prevalent population of particles with diameter of less than 20 µm) 5 mg/ml
# [2] = Solubility in water; format: physicochemical; conditions: crystalline substance
# From the text: The formulations according to the invention of stanozolol in an aqueous carrier are therefore aqueous suspensions, and it is necessary to prevent the suspended crystals of the drug from causing mechanical lesions such as abrasions and erosions despite the pressures and friction generated by the movement of the joint on the surfaces of the cartilage and synovial membrane.
smiles,measurement,setting,value
C[C@]12Cc3c[nH]nc3C[C@@H]1CC[C@@H]1[C@@H]2CC[C@@]2(C)[C@H]1CC[C@]2(C)O [stanozolol],maintained at pharmacologically active concentrations in the joint,[1]; single intrasynovial injection of the micronised aqueous suspension formulations,6-7 days
same,remains in the synovial fluid,"[1]; typical preparation with micronised stanozolol 5 mg/ml, intrasynovial route, horses and humans",5 to 7 days
same,solubility in water,[2],insoluble in water
